Assay results taken from patent publication US20090028795A1, “NOD1 as an Anti-Tumor Agent” (priority 2005, published 2009).
Starred links: 1 amine or outer side, 2 acyl side, 3 side chain; linkers in the order of their positions; H or OH if unused. Non-standard residues stand in square brackets, D forms with d. No end group written: not given here. mesoDAP = meso-diaminopimelic acid, O=C(O)[C@@H](CCC[C@H](N[*:1])C(=O)[*:2])N[*:3]

Experiments:
[1] = tested on: MCF-7 cells; assay: Propidium iodide exclusion cell death assay, wild-type (parental/Blasto) MCF-7 cells; assay type: cell-based, human
Method: (§1) Cell viability assays. Propidium iodide exclusion assay: Cells were stimulated as indicated for 2 days. Subsequently, cells were harvested, washed twice in FACS buffer (PBS containing 1% FCS and 0.1% NaN3) and resuspended in propidium iodide (PI)-containing FACS buffer (4 ug/ml). The extent of cell death was analyzed with a FACSCalibur flow cytometer (Becton Dickinson, Mountain View, Calif.). DAPI staining: MCF-7 cells were plated in chamber slides, and stimulated for 2 days. Cells were washed with PBS and apoptotic nuclei were stained with 1 μg/ml DAPI (Sigma Chemical Co., St. Louis, Mo.). Cells were fixed in 4% paraformaldehyde and examined by fluorescence microscopy.
(§2) To further investigate the role of Nod1 in apoptosis, a variety of cell types were incubated with the Nod1 ligand, […] (γTriDAP), which specifically activates Nod1. The cell types tested included the parental MCF-7 cell line, the Nod1-deficient MCF-7C20 clone, and a cell line engineered to contain an additional human Nod1 allele (MCF-7Nod1) so that Nod1 was over-expressed. To determine whether the resistance of C20 cells to γTriDAP-induced apoptosis resulted from the absence of Nod1, human Nod1 was stably expressed in MCF-7 C20 cells to produce Nod1-sufficient C20 cells (C20/Nod1). As another control, the parental MCF-7 cell line was transfected with an empty retroviral vector to generate MCF-7 Blasto cells. Cells were treated with γTriDAP in the presence or absence of cycloheximide (CHX) and cell death was then determined by propidium iodide staining and flow cytometry.

[2] = tested on: MCF-7 and MCF-7 C20 cells; assay: Sensitivity to apoptotic stimuli, parental MCF-7 versus MCF-7 C20 cells; assay type: cell-based, human; conditions: C20 compared with parental cells
From the text: FIG. 1A-C illustrates Nod1 involvement in TNF-induced apoptosis. FIG. 1A provides a schematic diagram of the mutated gene that gave rise to a TNFα-resistant phenotype, and was later identified as a Nod1 mutant bearing a blasticidine (blast) gene insertion. The cell line bearing this Nod1 mutation is the MCF7-C20 cell line. The insertion from the pDisrup retroviral construct was mapped to the Nod1 gene. The junction of blasticidine fused with the Nod1 gene occurred at the 3′ end of the Nod1 gene between leucine-rich region 8 (LRR8) and leucine-rich region 9 (LRR9). […] Cell extracts from MCF-7 parental (called “wt”) and MCF-7 C20 cells were prepared and either immunoprecipitated with a monoclonal anti-NOD1 antibody (upper panel) or directly loaded onto an SDS-PAGE gel (lower panel), then transferred to PVDF membranes. Blots were analyzed by immunoblotting using the same monoclonal anti-NOD1 antibody. […] MCF-7 and MCF-7 C20 cells were treated with increasing concentrations of TNF (0-40 ng/ml) for 20 h. Cell viability was determined by propidium iodide (PI) exclusion assay and flow cytometry.
as §1

[3] = tested on: MCF-7 Blasto, MCF-7 C20 and MCF-7 C20/Nod1 tumors; assay: Xenograft tumor growth in SCID mice with estrogen pellets; assay type: in vivo
Method: (§3) FIG. 11A-D illustrate that the presence of Nod1 prevents tumor growth in SCID mice. FIG. 11A graphically illustrates the tumor volume in mice injected with MCF-7 C20 (left) and MCF-7 C20/Nod1 (right) cells as a function of time. The cells (3×10^6 cells/mouse) were injected into the flanks of female SCID mice. Tumor size was measured once a week and volume was determined according to the formula (PW2×L)/2. Each line represents tumor growth observed in one mouse (n=4). As illustrated, the tumor volume diminished in mice that received Nod1 expressing tumor cells (C20/Nod1). […] FIG. 11B graphically illustrates that implanting estrogen pellets into mice prior to injection of MCF-7 Blasto, MCF-7 C20 and MCF-7 C20/Nod1 cells (3×10^6 cells/mouse) increases tumor growth except when the tumor cells express Nod1 (the C20/Nod1 cells). […] The tumor volume was determined as described above. FIG. 11C graphically illustrates the tumor volume over time in mice injected with MCF-7 Blasto, MCF-7 C20 and MCF-7 RIP2ΔCARD cells. […] FIG. 11D graphically illustrates tumor cell growth as a function of estrogen concentration. […] MCF-7 Blasto, MCF-7 C20, MCF-7 C20/Nod1 and MCF-7 RIP2ΔCARD cells were exposed to increasing concentrations of 17β-estradiol, pulsed with ^3H-thimidine and cell growth was determined by liquid scintillation. Data are representative of at least 3 independent experiments.
Human xenografts in nude mice. MCF-7 Blasto, MCF-7 C20 and MCF-7 C20/Nod1 cells were trypsinized, washed once with PBS and resuspended to a concentration of 1.5×10^7/ml. Two hundred microliters of each suspension were inoculated subcutaneously into the flank of athymic SCID/SCID or SCID/Nod (non-obese diabetic) female mice. Tumor size was assessed once a week. Tumor volume was calculated.
In most studies, tumor formation by MCF-7 cells requires supplementation of estrogens for tumorigenesis in nude mice, even when cells are inoculated at high concentration. To further examine the role of estrogen in tumorigenesis, all three cell lines were injected into mice along with estrogen pellets (FIG. 11B). […]

[4] = tested on: MCF-7 C20/Nod1 cells; assay: Propidium iodide exclusion apoptosis assay, estrogen/tamoxifen studies; assay type: cell-based, human
From the text: FIG. 12A-C illustrates that estrogen increases γTriDAP-induced apoptosis and tamoxifen inhibits γTriDAP-induced apoptosis in various MCF-7 tumor cell lines. FIG. 12A graphically illustrates the percent apoptosis in MCF-7 Blasto, MCF-7 C20 and MCF-7 C20/Nod1 cells cultured in increasing amounts or estrogen and either cycloheximide (CHX) or CHX plus γTriDAP (γTri). FIG. 12B graphically illustrates the percent apoptosis in MCF-7 Blasto, MCF-7 C20 and MCF-7 C20/Nod1 cells cultured in increasing amounts of tamoxifen and either cycloheximide (CHX) or CHX plus γTriDAP (γTri). For the estrogen studies, MCF-7 cells were cultured in charcoal-treated medium and stimulated with γTriDAP/CHX in the presence of increasing concentrations of estrogen (E2) and cell viability was measured by propidium iodide (PI) exclusion. For the tamoxifen studies, cells were treated with tamoxifen prior to addition of γTriDAP/CHX and cell viability measured by PI exclusion. […] Total protein extracts from MCF-7 Blasto, MCF-7 C20 and MCF-7 C20/Nod1 cells and from cells isolated from tumors were analyzed by immunoblotting using antibody against estrogen receptor (ERα), and ERK2 as loading control.
as §1
To determine whether the presence of estrogens modulates Nod1-induced apoptotic pathway, cells were cultured in medium containing charcoal-treated serum.

[5] = tested on: MCF-7 Blasto, MCF-7 C20, MCF-7 C20/Nod1 and MCF-7 RIP2ΔCARD cells; assay: Estrogen-induced proliferation (3H-thymidine) of MCF-7 cell lines; assay type: cell-based, human; conditions: for proliferative response to added estrogen: grown in the absence of estrogen
Method: as §3
Retroviral transfections. The various genes used in this study were cloned into pMSCV-Blasto, pBabe-Puro or pBabe-Neo retroviral vectors. MCF-7 cells were stably transfected using available procedures. Briefly, amphotropic 293 cells were transfected with retroviral vectors encoding selected Nod1, Nod2 and other proteins. Twenty-four hours post-transfection, cells were incubated at 32° C. overnight to produce viral particles. Target cells were infected the next day with virus-containing 293 cell supernatants containing recombinant retroviral particles. […] Cells were harvested on glass fiber filters and radioactivity measured by liquid scintillation. […]

[6] = tested on: MCF-7 C20 cells; assay: Propidium iodide exclusion cell death assay, Nod1-deficient MCF-7 C20 cells; assay type: cell-based, human; conditions: C20 cells, charcoal-treated serum, γTriDAP/CHX
Method: as §1
To further investigate the role of Nod1 in apoptosis, a variety of cell types were incubated with the Nod1 ligand, […] (γTriDAP), which specifically activates Nod1. The cell types tested included the parental MCF-7 cell line, the Nod1-deficient MCF-7C20 clone, and a cell line engineered to contain an additional human Nod1 allele (MCF-7Nod1) so that Nod1 was over-expressed. […] Cells were treated with γTriDAP in the presence or absence of cycloheximide (CHX) and cell death was then determined by propidium iodide staining and flow cytometry.

[7] = tested on: MCF-7 Nod1 cells; assay: Propidium iodide exclusion cell death assay, MCF-7 cells over-expressing Nod1; assay type: cell-based, human; conditions: for effect on γTriDAP-induced cell death: caspase inhibitor 50 uM, 30 min before γTriDAP/CHX for 48 h; for effect on γTriDAP-induced apoptosis: inhibitor 100 uM, 30 min prior to γTriDAP/CHX for 48 h
Method: as §1, §2

[8] = tested on: SK-BR3; assay: Apoptosis (PI staining), SK-BR3 cells; assay type: cell-based, human; conditions: plus TNFα and cycloheximide (FIG. 9B)
Method: as §1
To determine if Nod1-dependent apoptosis occurs in other human cell lines, a series of epithelial cell lines were examined where Nod1 was stably expressed to enhance sensitivity to activation of the Nod1 pathway. Cells were treated with TNFα (T) and γTriDAP (γ) in the presence or absence of CHX (C) and monitored for viability by PI staining as a measure of apoptosis (Table 1).

[9] = tested on: MCF-7 cells; assay: Apoptosis in the presence of TNFα (FIG. 8C); assay type: cell-based, human; conditions: with TNFα
Method: FIG. 8A-D illustrate that a synergistic relationship exists between NOD1 and TNFα. FIG. 8A graphically illustrates that the percentage of apoptotic cells increases in dose-specific manner as the concentration of NOD1 increases from 0.0 to 100 μg/ml and the concentration of TNFα increases from 0.5 ng/ml to 1 ng/ml. FIG. 8B graphically illustrates that the percentage of apoptotic cells increases in dose-specific manner as the concentration of cycloheximide increases from 0.0 to 3 μg/ml and the concentration of TNFα increases from 0.5 ng/ml to 1 ng/ml. […] FIG. 8D illustrates NOD1 expression at various time points after exposure of MCF-7 cells to TNFα.

[10] = tested on: poly(ADP-ribose)polymerase (PARP) and capases 6, 7, 8 and 9; assay: Western blot of PARP and caspase cleavage in MCF-7 cells; assay type: cell-based, human; conditions: CHX 0.5 ug/ml, 24 h
Method: Cleavage of PARP and various caspases was detected by Western blot analysis of cell MCF-7 Blasto, MCF-7 C20 and MCF-7 Nod1 after stimulation with γTriDAP, αTriDAP or medium (control) in the presence or absence of CHX (0.5 ug/ml) for 24 h. Cells were harvested, subjected to western blotting and PARP, caspases, p20, p41/43 and p35 were detected with antibodies reactive thereof.
Western blot analysis and immunoprecipitation. Cells were washed extensively and lysed using lysis buffer containing 50 mM Hepes, 100 mM NaCl, 2 mM EDTA, 10% glycerol, 1% Nonidet P-40, 14 μM pepstatin A, 100 uM leupeptin, 3 mM benzamidine, 1 mM PMSF, 1 mM sodium pyrophosphate, 10 mM sodium orthovanadate, 100 U/ml aprotinin, and 100 mM sodium fluoride. After incubation for 30 min on ice, cell lysates were centrifuged (14000 rpm, 10 min, 4° C.) and the supernatants were recovered. For immunoprecipitation, cell lysates were mixed with 5 μg of antibody for 3 hour at 4° C. under constant agitation. Immune complexes were allowed to bind to 20 μl protein A-Sepharose beads overnight, beads were washed three times with lysis buffer. Immunoprecipitates were separated on SDS-PAGE and transferred to PVDF membranes.

In the case of C[C@@H]1C[C@@H]([C@H](O)CC2CC(=O)NC(=O)C2)C(=O)[C@@H](C)C1 [cycloheximide], the “cell death / apoptosis” value ([1]; wild type cells, agent alone) is reported as “No cell death”.

With COc1cccc2c1C(=O)c1c(O)c3c(c(O)c1C2=O)C[C@@](O)(C(=O)CO)C[C@@H]3O[C@H]1C[C@H](N)[C@H](O)[C@H](C)O1 [doxirubicin] the “sensitivity of MCF-7 C20 cells versus parental MCF-7 cells to induced cell death” value [2] was “equally sensitive”.

In the case of 17β-estradiol [estrogen], the tumor growth ([3]; mice injected with MCF-7 Blasto cells, estrogen pellets) is reported as “tumors grew”, the tumor growth ([3]; mice injected with MCF-7 C20 cells, estrogen pellets) is reported as “grew even larger” and the tumor growth ([3]; mice that received MCF-7 C20/Nod1, estrogen pellets) is reported as “did not grow tumors”. For the same molecule, the “effect on γTriDAP-induced apoptosis” value ([4]; C20/Nod1 and Blasto cells, charcoal-treated serum, increasing estrogen) was “apoptosis increased in a dose-dependent manner”, the “proliferative response to added estrogen” value ([5]; MCF-C20 and MCF-7 RIP2ΔCARD cells) was “strong proliferative response” and the “proliferative response to added estrogen” value ([5]; parental and MCF-7 C20/Nod1 cells) was “neither the parental nor MCF-7 C20/Nod1 cell lines were stimulated to proliferate”. For the same molecule, the effect upon apoptosis [6] was “little or no effect”.

z-VAD-FMK was tested, and the “effect on γTriDAP-induced cell death” value [7] was “abrogated” and the “effect on γTriDAP-induced apoptosis” value [7] was “blocked γTriDAP-induced apoptosis nearly completely”.

With TNFα the “sensitivity of MCF-7 C20 cells versus parental MCF-7 cells to induced cell death” value [2] was “significantly more resistant”.

In the case of COC(=O)CC(NC(=O)OC(C)(C)C)C(=O)CF [Boc-D-FMK], the “effect on γTriDAP-induced cell death” value [7] is reported as “abrogated”.

CC[C@@]1(O)C(=O)OCc2c1cc1n(c2=O)Cc2cc3ccccc3nc2-1 [camptothecin] was tested, and the “sensitivity of MCF-7 C20 cells versus parental MCF-7 cells to induced cell death” value [2] was “equally sensitive”.

“αTriDAP: inactive control tri-peptide where mesoDAP was bound to Glu in the α position rather than in the γ position (Ala-Glu-[mesoDAP]; not fully specified)” was tested, and the “apoptosis of SKBR3 cells” value [8] was “reduced apoptosis”, the cell death ([1]; MCF-7 cells, in the presence of cycloheximide) was “did not induce cell death” and the “apoptosis in the presence of TNFα” value [9] was “may actually inhibit apoptosis”. The “proteolytic cleavage of PARP and capases 6, 7, 8 and 9” value [10] was “not”.

With IETD the “effect on γTriDAP-induced apoptosis” value [7] was “marked inhibitory effects”.

With CC/C(=C(\c1ccccc1)c1ccc(OCCN(C)C)cc1)c1ccccc1 [tamoxifen] the “effect on γTriDAP-induced cell death” value ([4]; MCF-7 cell lines treated prior to γTriDAP/CHX (FIG. 12B)) was “partially blocked” and the “effect on estrogen-induced proliferation” value ([5]; MCF-7 C20 cells (data not shown)) was “blocked”.
